Test results: patent publication US20170253607A1, “LONG-ACTING HIV PROTEASE INHIBITOR” (Shionogi & Co., Ltd., priority 2014, published 2017)

Molecular target: HIV-1 PR (Human immunodeficiency virus type 1 group M subtype B, UniProt P04585)
Test: HIV-protease inhibitory activity assay (FRET peptide substrate)
Format: biochemical
Conditions: Test Example 1
Method: Test Example 1: HIV-Protease Inhibitory Activity Assay
The HIV-1 PR assay was performed by using a FRET (Fluorescence Resonance Energy Transfer) peptide substrate (AnaSpec, Inc., Fremont, Calif.). Initially in the intact FRET peptide, the fluorescence of HiLyte Fluor 488 is quenched by QXL 520. Upon substrate cleavage by PR, the fluorescence is recovered and can be monitored. Test compounds diluted in DMSO was plated to the wells of 384-well plate. Then, mixed with assay buffer (0.1 mol/L NaAc containing 0.5 mol/L NaCl, 1 mmol/L EDTA, 1 mmol/L DTT, and 0.05% Tween 20, pH 4.8) in the presence or absence of HIV-1 PR (0.83 ng), and let it stand for 5 minutes at room temperature. Background fluorescence intensity was measured and let it stand for another 15 minutes at room temperature. The enzyme reaction was started by adding substrate diluted in assay buffer at final concentration of 2 μmol/L, and let it stand for 60 minutes at room temperature. After 60 minutes, the fluorescence intensity was measured. Fluorescence intensity was measured with excitation and emission wavelengths of 485 nm and 535 nm, respectively.
IC50 values were determined using non-linear regression four-parameter logistic equation, y=A+((B−A)/(1+((C/x)̂D))) where A=minimum inhibition, B=maximum inhibition, C=log IC50, D=slope factor, x=concentration of compound and y=% inhibition.

Structure (SMILES)	IC50 [nM]
COc1ccc(S(=O)(=O)N(CC(C)C)CC(O)C(Cc2ccc(C(=O)N(C)Cc3ccccc3-c3sc4c(c3C(=O)O)CC(C)(C)CC4)cc2)NC(=O)OC2COC3(C)OCCC23)cc1 (centres unmarked) [Compound I-219]	2.06
CC(C)CN(CC(O)C(Cc1ccc(OCc2ccccc2-c2sc3c(c2C(=O)O)CC(C)(C)CC3)cc1)NC(=O)OC1COC2(C)OCCC12)S(=O)(=O)c1ccc2nc(N(C)CCc3ccccc3)sc2c1 (centres unmarked) [Compound I-794]	38.4
COc1ccc(S(=O)(=O)N(CC(C)C)CC(O)C(Cc2ccc(N(C)Cc3cnc4sccc4c3-c3sc4c(c3C(=O)O)CC(C)(C)CC4)cc2)NC(=O)OC2COC3(C)OCCC23)cc1 (centres unmarked) [Compound I-702]	2.15
COc1ccc(S(=O)(=O)N(CC(C)C)CC(O)C(Cc2ccc(N3CC4CN(c5ccc(C#N)cc5-c5sc6c(c5C(=O)O)CC(C)(C)CC6)CC4C3)cc2)NC(=O)OC2COC3(C)OCCC23)cc1 (centres unmarked) [Compound I-233]	6.22
COc1ccc(S(=O)(=O)N(CC(C)C)CC(O)C(Cc2ccc(N(C)Cc3ncccc3C(=O)Nc3sc4c(c3C(=O)O)CC(C)(C)CC4)cc2)NC(=O)OC2COC3(C)OCCC23)cc1 (centres unmarked) [Compound I-694]	2.27
COc1ccc(S(=O)(=O)N(CC(C)C)CC(O)C(Cc2ccc(NCc3cc(Oc4ccccn4)ccc3-c3sc4c(c3C(=O)O)CC(C)(C)CC4)cc2)NC(=O)OC2COC3(C)OCCC23)cc1 (centres unmarked) [Compound I-685]	2.98
COc1ccc(S(=O)(=O)N(CC(C)C)CC(O)C(Cc2ccc(NCC3CC(C)(C)CCC3c3sc4c(c3C(=O)O)CC(C)(C)CC4)cc2)NC(=O)OC2COC3(C)OCCC23)cc1 (centres unmarked) [Compound I-765]	2.96
COc1ccc(S(=O)(=O)N(CC2CCCC2)CC(O)C(Cc2ccc(OCCn3nc4c(c3C(=O)O)CC(C)(C)CC4)cc2)NC(=O)OC2COC3(C)OCCC23)cc1 (centres unmarked) [Compound I-366]	2.72
COc1ccc(S(=O)(=O)N(CC(C)C)C[C@@H](O)[C@H](Cc2ccc(OCc3sc4ccccc4c3C(=O)O)cc2)NC(=O)O[C@H]2CO[C@@]3(C)OCC[C@@H]23)cc1 [Compound I-5]	1.15
COc1ccc(S(=O)(=O)N(CC2CC2)CC(O)C(Cc2ccc(NCc3ccccc3-c3sc4c(c3C(=O)O)CC(C)(C)CC4)cc2)NC(=O)OC2COC3(C)OCCC23)cc1 (centres unmarked) [Compound I-472]	2.27
COc1ccc(S(=O)(=O)N(CC(C)C)CC(O)C(Cc2ccc(OC3CCN(Cc4ccccc4-c4sc5c(c4C(=O)O)CC(C)(C)CC5)C3)cc2)NC(=O)OC2COC3(C)OCCC23)cc1 (centres unmarked) [Compound I-207]	2.1
COc1ccc(S(=O)(=O)N(CC2CCCC2)CC(O)C(Cc2ccc(OCc3ccccc3-n3nc(C(=O)O)c4c3CCC(C(F)(F)F)C4)cc2)NC(=O)OC2COC3(C)OCCC23)cc1 (centres unmarked) [Compound I-141]	1.74
COc1ccc(S(=O)(=O)N(CC(C)C)CC(O)C(Cc2ccc(OCCNC(=O)c3cc(Cl)cc(Cl)c3O)cc2)NC(=O)OC2COC3(C)OCCC23)cc1 (centres unmarked) [Compound I-68]	1.83
COc1ccc(S(=O)(=O)N(CC(C)C)CC(O)C(Cc2ccc(NCc3ccc(-c4sc5c(c4C(=O)O)CC(C)(C)CC5)c(C)c3)cc2)NC(=O)OC2COC3(C)OCCC23)cc1 (centres unmarked) [Compound I-534]	4.11
COc1ccc(S(=O)(=O)N(CC(C)C)CC(O)C(Cc2ccc(OCc3ccccc3-c3ccc(-n4nc5c(c4C(=O)O)CC(C)(C)CC5)cc3)cc2)NC(=O)OC2COC3(C)OCCC23)cc1 (centres unmarked) [Compound I-301]	3.14
CN(Cc1ccccc1C(=O)Nc1sc2c(c1C(=O)O)CC(C)(C)CC2)c1ccc(CC(NC(=O)OC2COC3(C)OCCC23)C(O)CN(CC2CCCC2)S(=O)(=O)c2ccc3c(c2)OCO3)cc1 (centres unmarked) [Compound I-681]	7.97
COc1ccc(S(=O)(=O)N(CC(C)C)CC(O)C(Cc2ccc(NCc3nc4ccccc4cc3C(=O)Nc3sc4c(c3C(=O)O)CC(C)(C)CC4)cc2)NC(=O)OC2COC3(C)OCCC23)cc1 (centres unmarked) [Compound I-774]	6.26
COc1ccc(S(=O)(=O)N(CC(C)C)CC(O)C(Cc2ccc(N(CCN3CCOCC3)Cc3ccccc3-c3sc4c(c3C(=O)O)CC(C)(C)CC4)cc2)NC(=O)OC2COC3(C)OCCC23)cc1 (centres unmarked) [Compound I-429]	2.21
COc1ccc(S(=O)(=O)N(CC(C)C)CC(O)C(Cc2ccc(NCc3ccccc3-c3c(C(=O)O)[nH]c4c3CCCC4=O)cc2)NC(=O)OC2COC3(C)OCCC23)cc1 (centres unmarked) [Compound I-495]	1.48
CCCCCCCCCCCCCC(=O)Nc1ccc(CNc2ccc(CC(NC(=O)OC3COC4(C)OCCC34)C(O)CN(CC(C)C)S(=O)(=O)c3ccc(OC)cc3)cc2)c(-c2sc3c(c2C(=O)O)CC(C)(C)CC3)c1 (centres unmarked) [Compound I-763]	3.07
COc1ccc(S(=O)(=O)N(CC(C)C)CC(O)C(Cc2ccc(NCc3cc(N4CC(C)(C)C4=O)ccc3-c3sc4c(c3C(=O)O)CC(C)(C)CC4)cc2)NC(=O)OC2COC3(C)OCCC23)cc1 (centres unmarked) [Compound I-728]	2.96

Structure (SMILES)	IC50 [nM]
COc1ccc(S(=O)(=O)N(CC(C)C)CC(O)C(Cc2ccc(NCc3ccccc3-c3c(C(=O)O)[nH]c4ccc(OC)cc34)cc2)NC(=O)OC2COC3(C)OCCC23)cc1 (centres unmarked) [Compound I-506]	1.7
COc1ccc(S(=O)(=O)N(CC(C)C)CC(O)C(Cc2ccc(OCc3ccc(-c4sc5c(c4C(=O)O)CC(C)(C)CC5)c(C)c3)cc2)NC(=O)OC2COC3(C)OCCC23)cc1 (centres unmarked) [Compound I-91]	1.35
COc1ccc(S(=O)(=O)N(CC(C)C)CC(O)C(Cc2ccc(NCc3ccc(Oc4ccc(-c5sc6c(c5C(=O)O)CC(C)(C)CC6)c(C)c4)cc3)cc2)NC(=O)OC2COC3(C)OCCC23)cc1 (centres unmarked) [Compound I-571]	22.2
COc1ccc(S(=O)(=O)N(CC(C)C)CC(O)C(Cc2ccc(OCc3ccccc3-n3nc4c(c3C(=O)O)CC(c3ccccc3)CC4)cc2)NC(=O)OC2COC3(C)OCCC23)cc1 (centres unmarked) [Compound I-144]	0.8
COc1ccc(S(=O)(=O)N(CC(C)C)CC(O)C(Cc2ccc(OCc3ccccc3-c3sc(Cl)c(-c4ccccc4)c3C(=O)O)cc2)NC(=O)OC2COC3OCCC23)cc1 (centres unmarked) [Compound I-849]	0.78
COc1ccc(S(=O)(=O)N(CC(C)C)CC(O)C(Cc2ccc(N(C)Cc3ccccc3-c3c(C(=O)O)c4ccccc4n3C)cc2)NC(=O)OC2COC3(C)OCCC23)cc1 (centres unmarked) [Compound I-412]	1.51
COc1ccc(S(=O)(=O)N(CC(C)C)C[C@@H](O)[C@H](Cc2ccc(OCc3ccccc3-c3sc4c(c3C(=O)O)CC(C)(C)CC4)cc2)NC(=O)O[C@@H]2C[C@@H]3[C@@H](OC(C)=O)CO[C@@H]3C2)cc1 [Compound I-28]	1.63
COc1ccc(S(=O)(=O)N(CC(C)C)CC(O)C(Cc2ccc(NCc3ccccc3-c3sc4c(c3C(=O)O)C(=O)CCC4)cc2)NC(=O)OC2COC3(C)OCCC23)cc1 (centres unmarked) [Compound I-367]	2.61
COc1ccc(S(=O)(=O)N(CC(C)C)CC(O)C(Cc2ccc(NCCOc3ccc(-c4sc5c(c4C(=O)O)CC(C)(C)CC5)c(C)c3)cc2)NC(=O)OC2COC3(C)OCCC23)cc1 (centres unmarked) [Compound I-518]	5.63
COc1ccc(S(=O)(=O)N(CC(C)C)CC(O)C(Cc2ccc(OCC3CCN(c4ccc(-c5sc6c(c5C(=O)O)CC(C)(C)CC6)cc4)C3)cc2)NC(=O)OC2COC3(C)OCCC23)cc1 (centres unmarked) [Compound I-894]	20.4
COc1ccc(S(=O)(=O)N(CC(C)C)CC(O)C(Cc2ccc(OCCNC(=O)c3cc(-c4ccc(F)cc4F)ccc3O)cc2)NC(=O)OC2COC3(C)OCCC23)cc1 (centres unmarked) [Compound I-172]	1.02
COc1ccc(S(=O)(=O)N(CC(C)C)CC(O)C(Cc2ccc(NCc3cc(-c4ccc(-c5ccccc5)cc4)ccc3-c3sc4c(c3C(=O)O)CC(C)(C)CC4)cc2)NC(=O)OC2COC3(C)OCCC23)cc1 (centres unmarked) [Compound I-721]	2.24
COc1ccc(S(=O)(=O)N(CC(C)C)CC(O)C(Cc2ccc(CN(C)Cc3cccc(-c4sc5c(c4C(=O)O)CC(C)(C)CC5)c3)cc2)NC(=O)OC2COC3(C)OCCC23)cc1 (centres unmarked) [Compound I-266]	2.61
COc1ccc(S(=O)(=O)N(CC2CCCC2)CC(O)C(Cc2ccc(OCc3ccccc3Cn3nc4c(c3C(=O)O)CC(C)(C)CC4)cc2)NC(=O)OC2COC3(C)OCCC23)cc1 (centres unmarked) [Compound I-216]	1.93
COc1ccc(S(=O)(=O)N(CC2CCCC2)CC(O)C(Cc2ccc(NCc3ccccc3C(=O)Nc3sc4c(c3C(=O)O)CC(C)(C)CC4)cc2)NC(=O)OC2COC3(C)OCCC23O)cc1 (centres unmarked) [Compound I-892]	4.06
COc1ccc(S(=O)(=O)N(CC(C)C)CC(O)C(Cc2ccc(N(Cc3ccncc3)Cc3ccccc3-c3sc4c(c3C(=O)O)CC(C)(C)CC4)cc2)NC(=O)OC2COC3(C)OCCC23)cc1 (centres unmarked) [Compound I-425]	2.65
COc1ccc(S(=O)(=O)N(CC(C)C)CC(O)C(Cc2ccc(N(C)C(=O)Nc3ccccc3-c3sc4c(c3C(=O)O)CC(C)(C)CC4)cc2)NC(=O)OC2COC3(C)OCCC23)cc1 (centres unmarked) [Compound I-269]	3.41
CC(C)CN(CC(O)C(Cc1ccc(OCc2ccc(-c3ccccc3)cc2C(=O)N(C)C)cc1)NC(=O)OC1COC2(C)OCCC12)S(=O)(=O)c1ccc2ncsc2c1 (centres unmarked) [Compound I-161]	0.94
COc1ccc(S(=O)(=O)N(CC(C)C)CC(O)C(Cc2ccc(N(C)Cc3ccccc3-c3ccc(NC(=O)CC4CC(C)(C)CCC4=O)cc3)cc2)NC(=O)OC2COC3(C)OCCC23)cc1 (centres unmarked) [Compound I-772]	21
COc1ccc(S(=O)(=O)N(CC(C)C)CC(O)C(Cc2ccc(N(C)CC3CC(C)(C)CCC3c3sc4c(c3C(=O)O)CC(C)(C)CC4)cc2)NC(=O)OC2COC3(C)OCCC23)cc1 (centres unmarked) [Compound I-770]	5.56
